According to ChEMBL document CHEMBL1201862, “PubChem BioAssay data set” (2004):
Active and inactive are the calls of the source.

Legend:
[1] = tested on: Trypanosoma cruzi; assay: anti-trypanosomal activity in host cells – cell-based, plate reader, dry powder, set 3, dose response (AID 493197); type: functional
[2] = T. cruzi infection blockers in NIH3T3 cells – beta-gal luminescence, NIH3T3 host cells, confirmation (AID 2630); type: functional, cell-based; conditions: Mus musculus
[3] = target: T1, Cannabinoid receptor 1 (Homo sapiens, UniProt P21554); assay: SAR analysis of antagonists of the Cannabinoid Receptor 1 using an Image-Based Assay - Set 2. [Related pubchem assays (depositor defined):AID2013, AID2026]; type: functional
[4] = target: T2, Cannabinoid receptor 2 (Homo sapiens, UniProt P34972); assay: SAR analysis of antagonists of the Cannabinoid Receptor 2 using an Image-Based Assay. [Related pubchem assays (depositor defined):AID2013, AID2026]; type: functional
[5] = target: T2, Cannabinoid receptor 2; assay: SAR analysis of agonists of the Cannabinoid Receptor 2 using an Image-Based Assay. [Related pubchem assays (depositor defined):AID2013, AID2026]; type: functional
[6] = target: T3, G-protein coupled receptor 35 (Homo sapiens, UniProt Q9HC97); assay: SAR analysis of Antagonists of the GPR35 Receptor using an Image-Based Assay - Set 3. [Related pubchem assays (depositor defined):AID2013, AID2026]; type: functional
[7] = target: T1, Cannabinoid receptor 1; assay: SAR analysis of agonists of the Cannabinoid Receptor 1 using an Image-Based Assay - Set 2. [Related pubchem assays (depositor defined):AID2013, AID2026]; type: functional
[8] = target: T3, G-protein coupled receptor 35; assay: SAR analysis of Agonists of the GPR35 Receptor using an Image-Based Assay - Set 2. [Related pubchem assays (depositor defined):AID2013, AID2026]; type: functional
[9] = target: G-protein coupled receptor 55 (Homo sapiens, UniProt Q9Y2T6); assay: inhibition of LPI-stimulated GPR55 beta-arrestin translocation – imaging, U2OS, beta-arrestin-GFP, LPI agonist, primary screen (AID 2013); type: functional;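 also: antagonist potency measured as reduced agonist-driven arrestin aggregation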
[10] = target: T4, Kappa-type opioid receptor (Homo sapiens, UniProt P41145); type: functional
[11] = target: Voltage-dependent T-type calcium channel subunit alpha-1H (Homo sapiens, UniProt O95180); type: functional;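 also: channel activity triggered by adding a high calcium stimulation buffer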
[12] = target: Beta-galactosidase (Escherichia coli, UniProt Q8VNN2); type: functional
[13] = target: T4, Kappa-type opioid receptor; type: functional; remark: listed apart in the source
[14] = tested on: Vero; assay: antiviral protection of cells from WNV – synthesized analogs, SAR follow-up (AID 2238); type: functional, cell-based; conditions: Chlorocebus sabaeus
[15] = tested on: Vero; assay: inhibition of WNV-induced cytopathic effect – cell-based, CPE readout (AID 1621); type: functional; conditions: Chlorocebus sabaeus
[16] = tested on: Vero; assay: Vero 76 cell viability after compound exposure – Vero 76 cells, synthesized analogs, cytotoxicity control for West Nile virus antiviral project, SAR follow-up (AID 2414); type: functional; conditions: Chlorocebus sabaeus
[17] = tested on: Vero; assay: Vero cell viability after compound exposure – synthesized analogs, set II, cytotoxicity control for West Nile virus antiviral project, SAR follow-up (AID 2402); type: functional; conditions: Chlorocebus sabaeus
[18] = tested on: Vero; assay: host cell viability loss, Vero E6 – synthesized analogs, cytotoxicity control for West Nile virus antiviral project, SAR follow-up (AID 2244); type: functional; conditions: Chlorocebus sabaeus
[19] = target: T5, Runt-related transcription factor 1/Core-binding factor subunit beta (Homo sapiens, UniProt Q01196+Q13951); assay: Confirmation of compounds inhibiting the binding between the RUNX1 Runt domain and CBFb-SMMHC via a time resolved fluorescence resonance energy transfer (TR-FRET) assay. [Related pubchem assays (depositor defined):AID1434, AID1438, AID1496, AID1560, AID1645]; type: protein assay
[20] = tested on: INS1; assay: INS-1E survival protection against cytokine death – cell-based, luminescence, retest, dose response (AID 449756); type: functional; conditions: Rattus norvegicus;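 also: cell death triggered by IL-1 beta plus TNF-alpha plus IFN-gamma mixture; protective hits raise ATP signal compared with cytokine alone wells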
[21] = target: T5, Runt-related transcription factor 1/Core-binding factor subunit beta; assay: Confirmation of compounds inhibiting the binding between the RUNX1 Runt domain and CBFb-SMMHC via a fluorescence resonance energy transfer (FRET) assay. [Related pubchem assays (depositor defined):AID1434, AID1438, AID1496, AID1550, AID1645]; type: protein assay
[22] = tested on: Vero; assay: viability of Vero cells under compound – cytotoxicity control for flavivirus capping enzyme inhibitors (AID 588742); type: functional; conditions: Chlorocebus sabaeus
[23] = target: T5, Runt-related transcription factor 1/Core-binding factor subunit beta; assay: disruptors of Runt domain/CBFb-SMMHC interaction – biochemical, FRET, Cerulean-Runt, Venus-CBFb-SMMHC, uHTS, […] (AID 1434); type: protein assay
[24] = target: T5, Runt-related transcription factor 1/Core-binding factor subunit beta; assay: Runt domain/CBFb-SMMHC interaction disruptors – biochemical, TR-FRET (AID 1438); type: protein assay
[25] = toxicity toward cultured mammalian cells – cell-based, plate reader, cherry-pick samples, cytotoxicity control, dose response (AID 504397); type: functional

T5 sequence (Q01196 whole entry, the tested form may be a part): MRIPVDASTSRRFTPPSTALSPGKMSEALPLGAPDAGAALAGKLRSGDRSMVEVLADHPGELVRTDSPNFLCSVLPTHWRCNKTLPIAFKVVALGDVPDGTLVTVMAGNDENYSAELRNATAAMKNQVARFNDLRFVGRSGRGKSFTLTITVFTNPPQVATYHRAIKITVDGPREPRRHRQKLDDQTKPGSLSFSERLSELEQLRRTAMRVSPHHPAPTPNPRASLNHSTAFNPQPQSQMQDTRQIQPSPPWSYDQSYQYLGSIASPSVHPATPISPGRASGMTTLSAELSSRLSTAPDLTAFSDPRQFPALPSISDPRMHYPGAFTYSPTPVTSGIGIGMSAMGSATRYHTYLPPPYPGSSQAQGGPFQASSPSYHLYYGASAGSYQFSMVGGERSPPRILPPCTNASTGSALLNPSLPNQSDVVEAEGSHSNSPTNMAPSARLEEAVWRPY
T5 sequence (Q13951 whole entry, the tested form may be a part): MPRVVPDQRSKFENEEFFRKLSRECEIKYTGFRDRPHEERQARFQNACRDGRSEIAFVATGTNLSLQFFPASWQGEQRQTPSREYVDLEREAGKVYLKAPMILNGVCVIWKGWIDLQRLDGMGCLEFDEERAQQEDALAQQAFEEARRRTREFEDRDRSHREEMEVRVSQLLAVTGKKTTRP
T3 sequence (Q9HC97 whole entry): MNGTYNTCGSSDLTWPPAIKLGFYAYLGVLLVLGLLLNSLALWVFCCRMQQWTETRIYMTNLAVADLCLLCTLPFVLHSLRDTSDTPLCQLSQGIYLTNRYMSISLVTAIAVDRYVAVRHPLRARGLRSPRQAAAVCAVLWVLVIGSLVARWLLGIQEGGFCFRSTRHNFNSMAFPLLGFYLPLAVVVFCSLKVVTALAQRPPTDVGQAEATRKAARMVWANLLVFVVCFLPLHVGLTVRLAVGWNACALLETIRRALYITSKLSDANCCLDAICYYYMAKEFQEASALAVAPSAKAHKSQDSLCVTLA
T4 sequence (P41145 whole entry): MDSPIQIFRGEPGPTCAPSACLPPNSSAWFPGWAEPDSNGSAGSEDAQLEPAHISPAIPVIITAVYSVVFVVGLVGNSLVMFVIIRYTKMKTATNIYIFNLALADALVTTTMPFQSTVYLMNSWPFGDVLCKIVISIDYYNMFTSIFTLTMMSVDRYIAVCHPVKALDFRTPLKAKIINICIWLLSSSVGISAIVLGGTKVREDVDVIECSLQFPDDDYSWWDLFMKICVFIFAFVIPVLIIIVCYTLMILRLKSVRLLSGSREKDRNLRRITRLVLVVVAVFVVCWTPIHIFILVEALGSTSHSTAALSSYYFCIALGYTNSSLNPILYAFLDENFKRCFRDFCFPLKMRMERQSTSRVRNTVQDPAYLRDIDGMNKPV
T1 sequence (P21554 whole entry): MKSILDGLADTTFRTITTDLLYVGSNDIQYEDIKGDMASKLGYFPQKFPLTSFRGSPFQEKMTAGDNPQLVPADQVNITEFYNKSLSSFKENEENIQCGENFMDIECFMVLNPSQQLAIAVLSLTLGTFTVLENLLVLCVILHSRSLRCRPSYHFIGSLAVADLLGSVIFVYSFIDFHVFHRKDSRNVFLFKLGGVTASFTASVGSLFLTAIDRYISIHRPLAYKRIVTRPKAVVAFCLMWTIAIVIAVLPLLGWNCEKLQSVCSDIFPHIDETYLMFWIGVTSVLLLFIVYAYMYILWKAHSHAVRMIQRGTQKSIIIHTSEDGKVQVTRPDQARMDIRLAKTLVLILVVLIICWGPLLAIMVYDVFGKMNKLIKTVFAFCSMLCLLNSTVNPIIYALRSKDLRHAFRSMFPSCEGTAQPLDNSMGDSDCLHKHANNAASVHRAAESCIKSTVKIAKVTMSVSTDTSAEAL
T2 sequence (P34972 whole entry): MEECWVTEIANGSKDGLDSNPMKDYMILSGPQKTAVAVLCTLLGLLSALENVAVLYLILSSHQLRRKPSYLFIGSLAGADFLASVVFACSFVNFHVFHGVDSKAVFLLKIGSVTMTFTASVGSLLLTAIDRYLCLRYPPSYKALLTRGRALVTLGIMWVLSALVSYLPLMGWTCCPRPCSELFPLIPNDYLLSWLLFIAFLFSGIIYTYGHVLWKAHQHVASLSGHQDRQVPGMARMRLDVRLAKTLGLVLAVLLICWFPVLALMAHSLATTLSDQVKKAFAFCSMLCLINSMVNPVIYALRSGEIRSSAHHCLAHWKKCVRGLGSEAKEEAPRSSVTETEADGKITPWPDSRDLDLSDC
Chain of Voltage-dependent T-type calcium channel subunit alpha-1H (O95180 whole entry): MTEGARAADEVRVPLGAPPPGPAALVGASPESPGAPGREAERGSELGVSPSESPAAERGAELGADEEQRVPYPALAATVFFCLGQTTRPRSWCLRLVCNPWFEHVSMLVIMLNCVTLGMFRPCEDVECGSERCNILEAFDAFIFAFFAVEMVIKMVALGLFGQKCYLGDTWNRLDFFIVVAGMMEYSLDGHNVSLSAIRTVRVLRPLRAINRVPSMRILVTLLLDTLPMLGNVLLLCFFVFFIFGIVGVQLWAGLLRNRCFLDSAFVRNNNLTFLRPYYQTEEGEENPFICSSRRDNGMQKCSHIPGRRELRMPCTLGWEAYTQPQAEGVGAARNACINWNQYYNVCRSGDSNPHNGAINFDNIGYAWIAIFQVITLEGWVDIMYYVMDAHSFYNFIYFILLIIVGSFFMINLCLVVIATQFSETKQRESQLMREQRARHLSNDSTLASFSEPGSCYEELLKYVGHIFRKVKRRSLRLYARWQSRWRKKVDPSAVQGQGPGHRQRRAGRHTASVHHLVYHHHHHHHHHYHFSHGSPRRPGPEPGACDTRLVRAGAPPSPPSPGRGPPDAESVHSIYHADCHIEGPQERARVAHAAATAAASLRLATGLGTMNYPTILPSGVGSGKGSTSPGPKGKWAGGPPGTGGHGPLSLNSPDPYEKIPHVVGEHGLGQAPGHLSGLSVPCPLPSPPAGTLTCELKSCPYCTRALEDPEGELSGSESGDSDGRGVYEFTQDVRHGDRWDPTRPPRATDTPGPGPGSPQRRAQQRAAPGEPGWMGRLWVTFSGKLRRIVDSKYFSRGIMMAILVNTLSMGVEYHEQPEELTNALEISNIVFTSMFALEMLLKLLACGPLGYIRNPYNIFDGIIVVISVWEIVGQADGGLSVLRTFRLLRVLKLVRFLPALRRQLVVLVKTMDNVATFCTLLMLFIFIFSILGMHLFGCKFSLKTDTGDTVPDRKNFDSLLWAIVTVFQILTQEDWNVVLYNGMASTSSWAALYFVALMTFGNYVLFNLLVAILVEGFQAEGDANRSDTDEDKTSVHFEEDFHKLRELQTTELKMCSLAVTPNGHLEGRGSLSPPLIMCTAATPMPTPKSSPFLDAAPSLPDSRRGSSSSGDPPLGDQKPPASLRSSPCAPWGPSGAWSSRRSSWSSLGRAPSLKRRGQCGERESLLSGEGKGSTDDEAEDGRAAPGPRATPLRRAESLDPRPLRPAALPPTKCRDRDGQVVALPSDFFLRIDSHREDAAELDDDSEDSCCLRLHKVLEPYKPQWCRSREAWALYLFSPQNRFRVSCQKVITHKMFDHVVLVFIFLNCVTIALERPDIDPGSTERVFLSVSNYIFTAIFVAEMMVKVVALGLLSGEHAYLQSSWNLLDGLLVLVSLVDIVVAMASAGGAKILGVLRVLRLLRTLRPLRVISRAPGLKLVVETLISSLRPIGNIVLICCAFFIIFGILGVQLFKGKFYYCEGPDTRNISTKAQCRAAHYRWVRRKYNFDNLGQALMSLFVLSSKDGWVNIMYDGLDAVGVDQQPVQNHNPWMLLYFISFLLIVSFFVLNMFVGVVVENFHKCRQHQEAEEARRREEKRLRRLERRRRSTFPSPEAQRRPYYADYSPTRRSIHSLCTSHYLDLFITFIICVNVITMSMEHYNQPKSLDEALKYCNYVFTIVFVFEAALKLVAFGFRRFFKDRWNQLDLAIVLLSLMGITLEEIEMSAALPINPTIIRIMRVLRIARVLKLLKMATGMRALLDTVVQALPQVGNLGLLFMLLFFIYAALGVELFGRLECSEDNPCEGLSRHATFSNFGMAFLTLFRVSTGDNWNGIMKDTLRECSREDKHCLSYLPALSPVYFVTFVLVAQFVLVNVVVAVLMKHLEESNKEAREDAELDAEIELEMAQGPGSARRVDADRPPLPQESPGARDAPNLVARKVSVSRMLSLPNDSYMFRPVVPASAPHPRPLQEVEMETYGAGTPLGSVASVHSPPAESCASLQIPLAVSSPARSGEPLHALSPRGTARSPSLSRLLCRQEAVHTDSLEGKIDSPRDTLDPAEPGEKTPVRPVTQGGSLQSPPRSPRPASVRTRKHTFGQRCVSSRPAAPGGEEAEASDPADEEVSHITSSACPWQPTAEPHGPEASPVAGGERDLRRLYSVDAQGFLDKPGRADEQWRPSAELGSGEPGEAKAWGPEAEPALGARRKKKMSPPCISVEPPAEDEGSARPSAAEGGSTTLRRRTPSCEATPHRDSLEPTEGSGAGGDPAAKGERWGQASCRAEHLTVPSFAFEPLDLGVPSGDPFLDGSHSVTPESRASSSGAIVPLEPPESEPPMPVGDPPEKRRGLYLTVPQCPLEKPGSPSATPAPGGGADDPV
Chain of G-protein coupled receptor 55 (Q9Y2T6 whole entry): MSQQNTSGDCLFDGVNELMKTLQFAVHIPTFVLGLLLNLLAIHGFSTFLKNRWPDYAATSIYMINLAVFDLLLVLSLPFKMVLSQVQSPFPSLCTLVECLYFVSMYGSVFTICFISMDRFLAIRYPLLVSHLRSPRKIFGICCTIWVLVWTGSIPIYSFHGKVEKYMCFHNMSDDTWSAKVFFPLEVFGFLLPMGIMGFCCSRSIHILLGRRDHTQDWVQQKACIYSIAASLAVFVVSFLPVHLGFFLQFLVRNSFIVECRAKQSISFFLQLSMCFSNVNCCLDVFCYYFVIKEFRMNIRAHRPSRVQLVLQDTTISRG

## CCN(CC)C(=O)C1CCCN(Cc2cccc(Cl)c2)C1 (stereo not given)
[1]
  AC50: 9.91 µM (active)
[2]
  EC50: 1.33 µM (active)

## Cc1ccc(C2(C(=O)N3CCC(n4nc(-c5ccccc5)oc4=O)CC3)CC2)cc1
[3]
  IC50: 17.7 µM (inactive)
[4]
  IC50: > 32 µM (inactive)
[5]
  EC50: > 32 µM (inactive)
[6]
  IC50: > 32 µM (inactive)
[7]
  EC50: > 32 µM (inactive)
[8]
  EC50: > 32 µM (inactive)
[9]
  IC50: 4.28 µM (active)

## O=C(C1CCCN(S(=O)(=O)Cc2ccccc2)C1)N1CCC(Cc2ccccc2)CC1 (stereo not given)
[10]
  IC50: > 32 µM
[11]
  EC50: 4.73 µM (active)
[12]
  EC50: > 31.5 µM (inactive)
[13]
  IC50: > 31.5 µM (inactive)

## O=C(CSc1nc2ccccc2c(=O)n1-c1ccc(F)cc1)Nc1ccc2c(c1)CCC2
[14]
  IC50: 24.5 µM (active)
[15]
  IC50: 20.6 µM (active)
[16]
  CC50: > 133 µM (active)
[17]
  CC50: > 200 µM (active)
[18]
  CC50: > 80 µM (active)

## O=C(c1cccnc1)N(c1cc2sc(=O)oc2c2ccccc12)S(=O)(=O)c1ccccc1
[19]
  IC50: > 100 µM (inactive)
[20]
  AC50: 6.65 µM (active)
[21]
  IC50: > 100 µM (inactive)
[22]
  CC50: > 40 µM (active)
[23]
  IC50: > 100 µM (inactive)
[24]
  IC50: > 100 µM (inactive)

## C=CCn1c(SCc2ccc(C#N)cc2)nnc1-c1ccc(C)cc1
[25]
  AC50: 98.3 µM (active)
